Results: US20220135622A1, “ANTIBACTERIAL PEPTIDES AND METHODS OF USE” (priority 2019, published 2022)
Like-named read-outs stand apart in the source and are kept apart here.

Assays:
E. coli BW25113 = assay type: cell-based, Escherichia coli
Method in brief: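 Growth inhibition: log-phase cells (OD600 ~0.001), peptides in 2-fold series up to 400–800 μM in MHB II, EDTA 0.5 mM (E. coli) or 0.125 mM (USA300), 4 h at 37 °C, ATP luminescence readout. MICs: inoculum at OD600 ~0.0002, with or without EDTA, 20 h at 37 °C, OD600 endpoint.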

K. pneumoniae = assay type: cell-based, Klebsiella pneumoniae
Description: (§1) Bacterial growth conditions. LB or Mueller Hinton II cation-adjusted broth (MHB II, BBL 212322) was prepared according to manufacturer's instructions and supplemented with arabinose at 0.02% for overnight growth or at indicated concentrations in the description of the figures. Bacterial cultures were grown at 37° C. When appropriate, media was supplemented with kanamycin (50 μg/mL), carbenicillin (50 μg/mL), chloramphenicol (12.5 or 25 μg/mL), hygromycin (200 μg/mL), and/or gentamicin (10 μg/mL).
(§2) Peptide sensitivity and MIC assays. Lyophilized peptides (Smartox Biotechnology, CPC Scientific. ABclonal) were solubilized to 10 mM in Tris buffer, pH 8, prior to making a 2-fold dilution series in MHBII cation adjusted broth with highest final assay concentration of 400-800 μM. Bacteria were grown to log phase and added to final OD600˜0.001. The final EDTA concentration was 0.5 mM for E. coli strains and 0.125 mM for USA300. The final volume of 10 μL/well in a 384 well black, clear bottom plate (Corning) was spun <1 min at <250×g and then incubated at 37° C. After 4 h, an equal volume (10 μL) of BacTiter-Glo™ (Promega) was added to each well and luminescence was read after 5 min on an EnVision plate reader (PerkinElmer). To measure the minimal inhibitory concentrations (MICs), bacteria from fresh overnight plates or log phase cultures were diluted with or without EDTA and peptides as described above to final OD600˜0.0002. Plates were incubated at 37° C. for 20 h before measuring OD600 with an EnVision plate reader.

A. baumannii = assay type: cell-based, Acinetobacter baumannii
Description: as §1, §2

P. aeruginosa = assay type: cell-based, Pseudomonas aeruginosa
Description: as §1, §2

Substance: Ac-RPMTFRRFLEKWGL-NH2 [compound 73]
- MIC E. coli BW25113 (E. coli BW25113; Table 8): 50 µM
- MIC K. pneumoniae (K. pneumoniae; Table 8): 200 µM
- MIC A. baumannii (A. baumannii; Table 8): 50 µM
- MIC R. aeruginosa (P. aeruginosa; Table 8): 800 µM

Substance: Ac-RPMTMRRFLEKWGL-NH2 [compound 206]
- MIC E. coli BW25113 (E. coli BW25113; Table 8): 200.0 µM
- MIC K. pneumoniae (K. pneumoniae; Table 8): 200.0 µM
- MIC A. baumannii (A. baumannii; Table 8): 200.0 µM
- MIC R. aeruginosa (P. aeruginosa; Table 8): 200.0 µM

Substance: Ac-RPMTSRRWLAKRGL-NH2 [compound 214]
- MIC E. coli BW25113 (E. coli BW25113; BW25113): 100.0 µM
- MIC K. pneumoniae (K. pneumoniae): >400.0 µM
- MIC A. baumannii (A. baumannii): >400.0 µM
- MIC R. aeruginosa (P. aeruginosa): >400.0 µM

Substance: Ac-RPMTWRRFLAKRGL-NH2 [compound 203]
- MIC E. coli BW25113 (E. coli BW25113; BW25113): 200.0 µM
- MIC K. pneumoniae (K. pneumoniae): >400.0 µM
- MIC A. baumannii (A. baumannii): 400.0 µM
- MIC R. aeruginosa (P. aeruginosa): >400.0 µM

Substance: Ac-RPMTWRRFLAKYGL-NH2 [compound 200]
- MIC E. coli BW25113 (E. coli BW25113; BW25113): 50.0 µM
- MIC K. pneumoniae (K. pneumoniae): 200.0 µM
- MIC A. baumannii (A. baumannii): 50.0 µM
- MIC R. aeruginosa (P. aeruginosa): 50.0 µM

Substance: Ac-YPMTARRFFEKWGLLR-NH2 [compound 94]
- MIC E. coli BW25113 (E. coli BW25113; Table 8): 200.0 µM
- MIC K. pneumoniae (K. pneumoniae; Table 8): >400.0 µM
- MIC A. baumannii (A. baumannii; Table 8): 200.0 µM
- MIC R. aeruginosa (P. aeruginosa; Table 8): >400.0 µM

Substance: Ac-YPMTARRFLQKWGLLR-NH2 [compound 72]
- MIC E. coli BW25113 (E. coli BW25113; Table 8): 400 µM
- MIC K. pneumoniae (K. pneumoniae; Table 8): 400 µM
- MIC A. baumannii (A. baumannii; Table 8): 50 µM
- MIC R. aeruginosa (P. aeruginosa; Table 8): 800 µM

Substance: Ac-YPMTFRRFLAKWGLLR-NH2 [compound 87]
- MIC E. coli BW25113 (E. coli BW25113; Table 8): 100.0 µM
- MIC K. pneumoniae (K. pneumoniae; Table 8): 25.0 µM
- MIC A. baumannii (A. baumannii; Table 8): 25.0 µM
- MIC R. aeruginosa (P. aeruginosa; Table 8): 50.0 µM

Substance: Ac-YPMTLRRFLEKWGLLR-NH2 [compound 83]
- MIC E. coli BW25113 (E. coli BW25113; Table 8): 200.0 µM
- MIC K. pneumoniae (K. pneumoniae; Table 8): 100.0 µM
- MIC A. baumannii (A. baumannii; Table 8): 50.0 µM
- MIC R. aeruginosa (P. aeruginosa; Table 8): 200.0 µM
